Results published in ChEMBL document CHEMBL1201862, “PubChem BioAssay data set” (2004).
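96-well plates; 48 h exposure; 5 concentrations. Endpoints by linear interpolation between flanking doses. Not reached: highest tested concentration assigned. Here, GI50 denotes the concentration required for 50% inhibition of growth.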 Calls of active or inactive are those of the source. Cut-off read from the data, not from the text of the source: active = GI50 up to about 1.1 µM and inactive = higher.

How the values were obtained:
Assay in all cases: inhibition of tumour cell growth, NCI panel, 48 h
MDA-N = system: MDA-N
DMS-273 = system: DMS-273
KM-20L2 = system: KM-20L2
DMS-114 = system: DMS-114
LXFL 529 = system: LXFL 529
XF498 = system: XF498
M19-MEL = system: M19-MEL
HOP-18 = system: HOP-18
RXF 631 = system: RXF 631

CC(=O)N(C)CCc1c[nH]c2ccccc12
GI50 (MDA-N): > 100 µM (inactive)

O=C1CCc2cc3c(cc21)C(C(=O)O)CC3 (stereo unspecified)
GI50 (MDA-N): > 100 µM (inactive)

COc1ccc(Nc2nc3cc(C(F)(F)F)ccc3nc2C(=O)O)cc1
GI50 (MDA-N): 31 µM (inactive)

CCCCCCc1cc2cc(-c3cn4ccccc4n3)c(=O)oc2cc1O
GI50 (MDA-N): 6.17 µM (inactive)

CCOC(=O)CN1C(=O)c2ccc(NC(=O)C(=O)O)cc2S1(=O)=O
GI50 (MDA-N): > 100 µM (inactive)

CS/C(=N/C#N)NCCc1c[nH]c2ccccc12
GI50 (DMS-273): > 100 µM (inactive) | GI50 (KM-20L2): 44.9 µM (inactive) | GI50 (DMS-114): 60.1 µM (inactive) | GI50 (LXFL 529): > 100 µM (inactive) | GI50 (XF498): 34.8 µM (inactive) | GI50 (M19-MEL): > 100 µM (inactive)

COc1ccc(/C=C2\OC(=O)C(Cl)=C2c2ccc(OC)cc2)cc1
GI50 (MDA-N): > 100 µM (inactive)

CC12CC3(O)OC(O1)C1(COC(=O)c4ccccc4)C3CC21OC1OC(CO)C(O)C(O)C1O (stereo unspecified)
GI50 (MDA-N): > 100 µM (inactive)

O=C(N/C(=C\c1ccccc1O)c1nc2ccccc2[nH]1)c1ccccc1
GI50 (DMS-273): 56.6 µM (inactive) | GI50 (HOP-18): 63.5 µM (inactive) | GI50 (KM-20L2): > 100 µM (inactive) | GI50 (DMS-114): 41.5 µM (inactive) | GI50 (LXFL 529): 51.2 µM (inactive) | GI50 (XF498): > 100 µM (inactive) | GI50 (M19-MEL): > 100 µM (inactive)

Nc1ncnc2c1nnn2C1C=C(CO)C(O)C1O (stereo unspecified)
GI50 (DMS-273): 44 µM (inactive) | GI50 (HOP-18): 95.3 µM (inactive) | GI50 (KM-20L2): 50.5 µM (inactive) | GI50 (DMS-114): 44.5 µM (inactive) | GI50 (LXFL 529): > 100 µM (inactive) | GI50 (XF498): > 100 µM (inactive) | GI50 (M19-MEL): > 79.1 µM (inactive)

Cc1ccc(/N=N/c2c(O)ccc3cc(S(=O)(=O)O)cc(S(=O)(=O)O)c23)cc1
GI50 (MDA-N): > 100 µM (inactive)

CN(Cc1ccccc1)Cn1ccnc1
GI50 (MDA-N): 76 µM (inactive)

CN1C(=O)C2C(=O)N(Cc3ccccc3)CC(=O)N2c2cccnc21 (stereo unspecified)
GI50 (MDA-N): > 100 µM (inactive)

COc1ccc(NC/C=C/C(=C/COC(C)=O)OC(C)=O)cc1
GI50 (MDA-N): 2.05 µM (inactive)

CC(=O)C1C(c2ccc(N(C)C)cc2)c2cc3c(cc2OC1(C)O)OCO3 (stereo unspecified)
GI50 (DMS-273): 29.4 µM (inactive) | GI50 (HOP-18): 68.9 µM (inactive) | GI50 (KM-20L2): 6.85 µM (inactive) | GI50 (DMS-114): 33.3 µM (inactive) | GI50 (XF498): 34 µM (inactive) | GI50 (M19-MEL): 45.2 µM (inactive)

Cc1cc(NCCCCCCNc2cc(C)nc3ccc(Cl)cc23)c2cc(Cl)ccc2n1
GI50 (DMS-273): 20.4 µM (inactive) | GI50 (KM-20L2): 15.8 µM (inactive) | GI50 (DMS-114): 18.9 µM (inactive) | GI50 (LXFL 529): > 100 µM (inactive) | GI50 (XF498): 18.1 µM (inactive) | GI50 (RXF 631): > 100 µM (inactive) | GI50 (M19-MEL): 21.4 µM (inactive)

Cc1nn(C(=O)Cc2ccccc2)c2c1C(c1ccccc1[N+](=O)[O-])SC(=N)N2 (stereo unspecified)
GI50 (MDA-N): > 100 µM (inactive)

CC(C)(c1ccc(C=O)o1)c1ccc(C(C)(C)c2ccc(C=O)o2)o1
GI50 (DMS-273): > 100 µM (inactive) | GI50 (HOP-18): > 100 µM (inactive) | GI50 (KM-20L2): > 100 µM (inactive) | GI50 (LXFL 529): > 100 µM (inactive) | GI50 (RXF 631): > 100 µM (inactive)

CC(=O)c1nc2ccccc2n1CC(=O)c1ccc(Cl)cc1
GI50 (MDA-N): 1.93 µM (inactive)

CN(C)c1ccc(-c2nc(N)nc3c2CCCC3)cc1
GI50 (DMS-273): 50.2 µM (inactive) | GI50 (KM-20L2): 57.8 µM (inactive) | GI50 (DMS-114): 38.5 µM (inactive) | GI50 (LXFL 529): 63.8 µM (inactive) | GI50 (XF498): 19.4 µM (inactive) | GI50 (M19-MEL): 45 µM (inactive)

CCOC(=O)c1c(NC(=O)c2ccccc2)c(C#N)c2n1CCCCC2
GI50 (MDA-N): > 100 µM (inactive)

COc1cc(C2c3cc4c(cc3CC3COC(=O)N32)OCO4)cc(OC)c1OC (stereo unspecified)
GI50 (MDA-N): 0.434 µM (active)

Cc1nc2c(O)c3c(c(O)c2nc1C)C1C=CC3CC1
GI50 (MDA-N): 2.97 µM (inactive)

CC1CC(c2cccc3c2OCO3)=Nc2ccccc2S1 (stereo unspecified)
GI50 (DMS-273): > 100 µM (inactive) | GI50 (KM-20L2): > 100 µM (inactive) | GI50 (DMS-114): 65.6 µM (inactive) | GI50 (LXFL 529): > 100 µM (inactive) | GI50 (XF498): > 100 µM (inactive) | GI50 (M19-MEL): > 100 µM (inactive)

COC(=O)C1=C(OC(=O)/C=C/c2ccccc2)C(C(=O)OC)[C@@]2(O)[C@@H](C(=O)OC)[C@H](C)C[C@@H]1[C@@H]2C(=O)OC (stereo partly specified)
GI50 (MDA-N): 19.7 µM (inactive)

c1ccc2c(OCC3CO3)ccc(OCC3CO3)c2c1 (stereo unspecified)
GI50 (MDA-N): 2.8 µM (inactive)

CCOC(=O)c1nc2ccccc2nc1Oc1cc(OC)cc(OC)c1
GI50 (MDA-N): > 100 µM (inactive)

O=S(O)CCCSSc1ccccc1
GI50 (DMS-273): 30.8 µM (inactive) | GI50 (HOP-18): > 100 µM (inactive) | GI50 (KM-20L2): 51.1 µM (inactive) | GI50 (DMS-114): 16.8 µM (inactive) | GI50 (LXFL 529): 32.5 µM (inactive) | GI50 (XF498): 98.9 µM (inactive) | GI50 (M19-MEL): 39.4 µM (inactive)

NS(=O)(=O)c1ccc(NC(=O)c2cc([N+](=O)[O-])cc([N+](=O)[O-])c2)cc1
GI50 (MDA-N): 21.8 µM (inactive)

CN(C)Cc1cc(C(=O)/C=C/c2ccc(/C=C/C(=O)c3cc(CN(C)C)c(O)c(CN(C)C)c3)cc2)cc(CN(C)C)c1O
GI50 (MDA-N): > 10 µM (inactive)

CCCSC1=N/C(=C\c2ccco2)C(=O)N1
GI50 (MDA-N): > 100 µM (inactive)

CCCn1c(SCC)c2cc3cc4ccccc4cc3cc2c1-c1nc(F)nc(F)n1
GI50 (DMS-273): > 100 µM (inactive) | GI50 (KM-20L2): > 100 µM (inactive) | GI50 (DMS-114): > 100 µM (inactive) | GI50 (LXFL 529): > 100 µM (inactive) | GI50 (XF498): > 100 µM (inactive) | GI50 (RXF 631): > 100 µM (inactive) | GI50 (M19-MEL): > 100 µM (inactive)
